Assay [1] deals with IL-23p19. As to the kind of experiment: LPS Induced IL23p19 in THP-1 Cells (with IFNγ Primed) Assay. As to conditions: Homo sapiens, THP-1, THP-1 cells, IFNγ (50 ng/mL) primed, 1 hour compound pre-incubation, LPS 1 ug/mL 18 hours, 10 pt; read-out: IL23-p19 ELISA, THP1-IFNy, LPS, 10 pt EC50. In kind it is cell-based, human. An outline of the steps:
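THP-1 cells (50K/well) primed ~18 h with IFNγ (50 ng/mL) in RPMI/10% FBS, then incubated with compound in duplicate for 18 h at 37° C. Supernatant IL-23p19 measured by chemiluminescent sandwich ELISA, giving EC50 by curve fitting. Toxicity assessed in parallel on the remaining cells by Cell Titer Glo.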
In general terms: ELISA stands for enzyme-linked immunosorbent assay.

The subject of assay [2] is IL-23 (p19/p40). As to the kind of experiment: IL23-p19 ELISA, dendritic cells (DC differentiated from human PBMC, IFNγ primed), LPS stimulated. In kind it is cell-based. As to conditions: Dendritic cell, human PBMC-derived dendritic cells, 1 h compound pre-incubation, LPS 1 μg/ml 18 hours, 10 pt. An outline of the steps: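 PBMC-derived DCs (GM-CSF 100 ng/ml + IL-4 20 ng/ml, 7 days) primed 24 h with IFNγ 50 ng/ml, 50K cells/well; compound pre-incubated 1 h at 37° C, then LPS, 18 h. Supernatant IL-23 by p19-capture/p40-detection chemiluminescent ELISA; cytotoxicity by Cell Titer Glo.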

Where a name gives a salt, the structure may show the parent alone.

As to `COCCOCCn1cc(NC(=O)c2cccc(-c3ccco3)n2)c(-c2ccccn2)n1` [Compound I-152, 6-(furan-2-yl)-N-(1-(2-(2-methoxyethoxy)ethyl)-3-(pyridin-2-yl)-1H-pyrazol-4-yl)picolinamide 2,2,2-trifluoroacetate], the 50% effective concentration (EC50) – broadly, the concentration at which the effect is half-maximal – worked out at 12.4 µM in assay [1] and 14.2 µM in assay [2].
The corresponding values for `COCCOCCn1cc(NC(=O)c2cccc(-c3cn[nH]c3)n2)c(-c2ccccn2)n1` [Compound I-153, N-(1-(2-(2-methoxyethoxy)ethyl)-3-(pyridin-2-yl)-1H-pyrazol-4-yl)-6-(1H-pyrazol-4-yl)picolinamide formate] are 0.463 µM and 0.628 µM.
The corresponding values for `COCCOCCn1cc(NC(=O)c2cccc(Nc3ccc4[nH]ncc4c3)n2)c(-c2ccccn2)n1` [Compound I-154, 6-((1H-indazol-5-yl)amino)-N-(1-(2-(2-methoxyethoxy)ethyl)-3-(pyridin-2-yl)-1H-pyrazol-4-yl)picolinamide formate] are 4.92 µM and 6.51 µM.
The corresponding values for `COCCOCCn1cc(NC(=O)c2cccc(Nc3ccc4n[nH]cc4c3)n2)c(-c2ccccn2)n1` [Compound I-155, 6-((2H-indazol-5-yl)amino)-N-(1-(2-(2-methoxyethoxy)ethyl)-3-(pyridin-2-yl)-1H-pyrazol-4-yl)picolinamide formate] are 6.17 µM and 2.41 µM.
As to `COCCOCCn1cc(NC(=O)c2cccc(Oc3ccnc(N)c3)n2)c(-c2ccccn2)n1` [Compound I-156, 6-((2-aminopyridin-4-yl)oxy)-N-(1-(2-(2-methoxyethoxy)ethyl)-3-(pyridin-2-yl)-1H-pyrazol-4-yl)picolinamide formate], the figures for the EC50 in assay [1] and in assay [2] were 21.4 µM and 2.73 µM, respectively.
The corresponding values for `Cn1cc(NC(=O)c2cccc(-c3ccnc(NCC(F)(F)F)c3)n2)c(-c2ccccn2)n1` [Compound I-161, N-(1-methyl-3-(pyridin-2-yl)-1H-pyrazol-4-yl)-2′-((2,2,2-trifluoroethyl)amino)-[2,4′-bipyridine]-6-carboxamide formate] are 7.52 µM and 4.2 µM.
The corresponding values for `COC1CC(n2cc(NC(=O)c3cccc(-c4cncc(C)c4)n3)c(-c3ccccn3)n2)C1` (centres unmarked) [Compound I-162, N-(1-(3-methoxycyclobutyl)-3-(pyridin-2-yl)-1H-pyrazol-4-yl)-5′-methyl-[2,3′-bipyridine]-6-carboxamide formate] are 0.499 µM and 0.167 µM.
The corresponding values for `COC1CC(n2cc(NC(=O)c3cccc(-c4cn[nH]c4)n3)c(-c3ccccn3)n2)C1` (centres unmarked) [Compound I-163, N-(1-(3-methoxycyclobutyl)-3-(pyridin-2-yl)-1H-pyrazol-4-yl)-6-(1H-pyrazol-4-yl)picolinamide formate] are 0.371 µM and 1.06 µM.
With `Cc1cncc(-c2cccc(C(=O)Nc3cn(C4CCOCC4)nc3-c3ccccn3)n2)c1` [Compound I-164, 5′-methyl-N-(3-(pyridin-2-yl)-1-(tetrahydro-2H-pyran-4-yl)-1H-pyrazol-4-yl)-[2,3′-bipyridine]-6-carboxamide], the figures for the EC50 in assay [1] and in assay [2] were 1.37 µM and 2.89 µM, respectively.
With `O=C(Nc1cn(C2CCOCC2)nc1-c1ccccn1)c1cccc(-c2cc[nH]n2)n1` [Compound I-166, 6-(1H-pyrazol-3-yl)-N-(3-(pyridin-2-yl)-1-(tetrahydro-2H-pyran-4-yl)-1H-pyrazol-4-yl)picolinamide], the EC50 was found to be 1.09 µM in assay [1] and 0.071 µM in assay [2].
For the compound `COCCCn1cc(NC(=O)c2cccc(-c3cncc(C)c3)n2)c(-c2ccccn2)n1` [Compound I-169, N-(1-(3-methoxypropyl)-3-(pyridin-2-yl)-1H-pyrazol-4-yl)-5′-methyl-[2,3′-bipyridine]-6-carboxamide], the 50% effective concentration (EC50) in assay [1] is 0.557 µM; in assay [2], 2.42 µM.
The corresponding values for `CN1CCN(c2ccc(-c3nn(C)cc3NC(=O)c3cccc(-c4cn[nH]c4)n3)nc2)CC1` [Compound I-174, N-(1-methyl-3-(5-(4-methylpiperazin-1-yl)pyridin-2-yl)-1H-pyrazol-4-yl)-6-(1H-pyrazol-4-yl)picolinamide] are 19.5 µM and 7.07 µM.
The corresponding values for `CN1CCN(c2ccc(-c3nn(C)cc3NC(=O)c3cccc(-c4cc[nH]n4)n3)nc2)CC1` [Compound I-175, N-(1-methyl-3-(5-(4-methylpiperazin-1-yl)pyridin-2-yl)-1H-pyrazol-4-yl)-6-(1H-pyrazol-3-yl)picolinamide] are 9.01 µM and 6.84 µM.
The corresponding values for `Cc1cncc(-c2cccc(C(=O)Nc3cn(C)nc3-c3ccc(N4CCN(C)CC4)cn3)n2)c1` [Compound I-177, 5′-methyl-N-(1-methyl-3-(5-(4-methylpiperazin-1-yl)pyridin-2-yl)-1H-pyrazol-4-yl)-[2,3′-bipyridine]-6-carboxamide dihydrochloride] are 21.7 µM and 12.2 µM.
For the compound `Cc1cncc(-c2cccc(C(=O)Nc3cn(C)nc3-c3ccc(OCC(C)(C)O)cn3)n2)c1` [Compound I-178, N-(3-(5-(2-hydroxy-2-methylpropoxy)pyridin-2-yl)-1-methyl-1H-pyrazol-4-yl)-5′-methyl-[2,3′-bipyridine]-6-carboxamide], the EC50 in assay [1] is 2.07 µM; in assay [2], 19.3 µM.
With `Cn1cc(NC(=O)c2cccc(-c3cc[nH]n3)n2)c(-c2ccc(OCC(C)(C)O)cn2)n1` [Compound I-180, N-(3-(5-(2-hydroxy-2-methylpropoxy)pyridin-2-yl)-1-methyl-1H-pyrazol-4-yl)-6-(1H-pyrazol-3-yl)picolinamide], the results for the EC50 in assay [1] and in assay [2] were 0.34 µM and 1.19 µM, respectively.
The corresponding values for `Cc1cncc(-c2cccc(C(=O)Nc3cn(C)nc3-c3ccc(OC4COC4)cn3)n2)c1` [Compound I-181, 5′-methyl-N-(1-methyl-3-(5-(oxetan-3-yloxy)pyridin-2-yl)-1H-pyrazol-4-yl)-[2,3′-bipyridine]-6-carboxamide] are 1.49 µM and 4.17 µM.
The corresponding values for `Cn1cc(NC(=O)c2cccc(-c3cc[nH]n3)n2)c(-c2ccc(OC3COC3)cn2)n1` [Compound I-183, N-(1-methyl-3-(5-(oxetan-3-yloxy)pyridin-2-yl)-1H-pyrazol-4-yl)-6-(1H-pyrazol-3-yl)picolinamide] are 0.0961 µM and 0.216 µM.
Turning to `CCO[C@H]1CC[C@H](n2cc(NC(=O)c3cccc(-c4cn[nH]c4)n3)c(-c3ncc(F)cc3F)n2)CC1` [Compound I-184, N-(3-(3,5-difluoropyridin-2-yl)-1-(trans-4-ethoxycyclohexyl)-1H-pyrazol-4-yl)-6-(1H-pyrazol-4-yl)picolinamide], the EC50 in assay [1] was 0.328 µM; in assay [2], 8.25 µM.

(Values after patent publication US10947216B2, “Amide compounds and method for making and using” (Rigel Pharmaceuticals, Inc., priority 2016, dated 2021).)
